Here are results for one compound from patent US7696408B2, “Method to enhance Agrobacterium-mediated transformation of plants” (Regents of the University of Minnesota, priority 1999, dated 2010).

The subject of experiment [1] is Japonica rice meristem cultures. As to conditions: individually or in combination; Enríguez-Obregón et al., 1999; cited from earlier work.
A further experiment relates to soybean. The experiment is described as follows: Production of transgenic soybean plants. Details: species or system Glycine max. As to conditions: cysteine 400-1000 mg/l.
In experiment [2] the test system is soybean cot-node explants. Put plainly: GUS+ sectors, shoots and shoot primordia after 28 days (4 weeks) on shoot induction medium with PPT (stable transformation). Format: cell-based, Glycine max. Conditions: for % of explants with GUS+ shoots: Bert. How it is done: After 5 days, the explants were washed in a liquid shoot induction media (B5 salts, MSIII iron stock, 3% sucrose, 3 mM MES, and filter sterilized B5 vitamins, 1.67 mg/l BAP, 100 mg/l cefotaxime, and 500 mg/l ticarcillin; pH 5.6) to remove excess Agrobacterium. Seven to ten explants from each cysteine level were washed in liquid shoot induction medium and placed in GUS histochemical stain (Jefferson et al., 1987). These explants were scored for GUS transient expression. Five to ten explants from each group were imbedded into a single 25×100 mm petri plate with solid shoot induction media (0.8% agar and agent, e.g., 400 mg/l cysteine) containing PPT concentrations of 1.33 mg/l, 3.33 mg/l, or 5.0 mg/l for selection. The plates were then incubated in a growth chamber with a fluctuating temperature between 18° C.-30° C. under a 18 hours light/6 hours dark cycle at 90-150 μE/m^2s. The explants were removed from the chamber after 14 days and transferred to fresh shoot induction media containing herbicide selection. During the transfer, the hypocotyl was carefully removed from the developing shoot mass and imbedded into the media with the differentiating tissue flush with the media surface. The plates were placed back into the growth chamber for an additional 2 weeks. At the 4 week time point, explants without de novo shoot production were discarded. The cotyledons were then removed from the differentiating tissue by cutting at the base of the node and the callus trimmed before transferring into shoot elongation media containing MS salts (murashige and Skoog, 1962), MSIII iron stock, 3% sucrose, 3 mM MES, 0.8% agar, and filter sterilized B5 vitamins, 50 mg/l asparagine, 100 mg/l pyroglutamic acid, 1 mg/l zeatin riboside, 0.1 mg/l indole-acetic acid, 0.5 mg/l GA3, 100 mg/l cefotaxime, 500 mg/l ticarcillin, 1.3-5 mg/l PPT; pH 5.6). Also at this time, a percentage of the explants were sliced into about 10 sections and stained for both GUS positive sectors and GUS positive shoots. Every 2 weeks the explants were transferred into new shoot elongation media after removing dead plant tissue and the bottom of the explant cut to encourage shoot elongation of transformed shoots. For the 4 week data, the minimum number of transformation events was recorded. Those explants with a GUS positive sector in the differentiating tissue giving rise to shoots were recorded with the number of transformation events in bold and italicized (FIGS. 2-5). Shoot data was obtained by recording the number of fully formed shoots seen on an explant. […] To determine the effect of adding cysteine to the co-cultivation medium on stable transformation, co-cultured explants were cultured for 28 days on a shoot-inducing medium containing the herbicide, phosphinothricin (PPT). During the 28 day incubation, the explants usually form de novo callus and shoots in the cot-node region in a structure referred to as a callus/shoot pad (FIG. 9). The callus/shoot pads were sliced in approximately 5 mm sections, immersed into GUS histochemical stain, and scored for GUS^+ sectors throughout the callus/shoot pad. […] The formation of transgenic shoot primordia and sectors extending into developing shoot tissues were also scored on 28 day sections of explants co-cultivated on 0 and 400 mg/l cysteine (FIG. 10A). Only those GUS^+ shoot primordia with obvious trichomes, which are characteristic to leaf tissue, or GUS^+ sectors originating and extending into the tissue at the base of developing shoots (referred to hereafter as differentiating tissue) were scored (FIG. 1A2).

[3] abbreviates: cysteine 400-1000 mg/l, eight independent experiments.

The structures appear in SMILES notation. Several values for one entry are separate records, joined by “and”; a condition that tells them apart may be missing. Equal entries are not always repeated. Entries after “also recorded” stand apart in the source; their conditions may differ.

As to `N[C@@H](CS)C(=O)O` [L-cysteine], in experiment [1], the “damage and viability of Japonica rice meristem cultures” value is “decreased damage and increased viability”. The “increase in production of transgenic plants” value with soybean is reported as 2 fold. The “% of explants with GUS+ shoots” value in experiment [2] (400 mg/l cysteine and 3.33 mg/l PPT) is 16.6% and 16.7%. For the same compound, in experiment [2] (400 mg/l cysteine and 5 mg/l PPT), the “% of explants with GUS+ shoots” value amounted to 33.3%. Besides, the “average number of GUS+ sectors per explant, each genotype tested” value in experiment [2] (400 mg/l cysteine vs no cysteine, 28 day) is recorded as “significantly greater”. Also, in experiment [2] (400 mg/l cysteine, 28 days), the “frequency of explants with a GUS+ sector in differentiating tissue, relative to no cysteine” value is 3.5 fold and the “percent of explants with GUS+ shoot primordia, relative to no cysteine” value came to 5 fold. Further, in experiment [2] (400 mg/l cysteine, low selection pressure 1.6 to 3.33 mg/l PPT, control 3.3), the “average GUS+ foci/explant scored after 4 weeks of shoot initiation” value amounted to 15.6 GUS+ foci/explant. The “percent of explants with GUS+ shoot primordia or differentiated sectors, difference from 0 mg/l cysteine” value in experiment [2] (400 mg/l shoot primordia and differentiated sectors, 1000 mg/l shoot primordia, α=0.05) was “significantly differ”. In addition, in experiment [2] (1000 mg/l cysteine, 28 days), the “increase in GUS+ sectors over the control explants” value was determined as 3.6 fold. Also, the “average number of GUS+ sectors per explant compared to no cysteine” value in experiment [2] (300 to 1000 mg/l cysteine (FIG. 9 also 1500 mg/l), 28 days, P<0.05) is “significantly higher; also recorded: significantly differ”. In addition, the “increase in GUS+ sectors over the no cysteine control” value in experiment [2] (400 to 1000 mg/l cysteine, 28 days) is given as more than 3 fold. Besides, the “explants with GUS+ shoot primordia at other cysteine levels” value in experiment [2] (all other levels of cysteine tested, except 50 mg/l, 28 days) is on record as “at least one explant”. The “GUS+ foci at the 28-day interval” value in experiment [2] (amended to solid co-cultivation media) is given as “increase”. For the same compound, in experiment [2] (setting [3]), the “increase in GUS+ shoot primordia after 28 days” value turned out to be 5 fold and the “increase in stable T-DNA integration after 28 days” value was 3.6 fold. For the same compound, the “number of GUS+ sectors on the callus/shoot pad, cysteine in shoot induction medium” value in experiment [2] (cysteine added to shoot induction medium for 28 days) is “did not increase”. The “increase in stable T-DNA transfer in newly developed shoot primordia” value in experiment [2] (cysteine in co-cultivation media) was not below 5 fold.
